Holding throughout (format): physicochemical
The nature of series [1]: Gravimetric Vapor Sorption (GVS). The following applies: for solid form by XRPD re-analysis after GVS humidity cycles: reanalysis under ambient conditions, hydrochloride. The procedure:
Gravimetric Vapor Sorption (GVS)
Sorption isotherms were obtained using a Hiden IGASorp moisture sorption analyser, controlled by CFRSorp software. The sample temperature was maintained at 25° C. by a Huber recirculating water bath. The humidity was controlled by mixing streams of dry and wet nitrogen, with a total flow rate of 250 ml·min-1. The relative humidity was measured by a calibrated Vaisala RH probe (dynamic range of 0-95% RH), located near the sample. The weight change, (mass relaxation) of the sample as a function of % RH was constantly monitored by themicrobalance (accuracy ±0.001 mg). Typically 1-3 mg of sample was placed in a tared mesh stainless steel basket under ambient conditions. The sample was loaded and unloaded at 40% RH and 25° C. (typical room conditions). A moisture sorption isotherm was performed as outlined below (2 scans giving 1 complete cycle). The standard isotherm was performed at 25° C. at 10% RH intervals over a 0-90% RH range.
The software uses a least squares minimization procedure together with a model of the mass relaxation, to predict an asymptotic value. The measured mass relaxation value must be within 5% of that predicted by the software before the next % RH value is selected. The minimum equilibration time was set to 1 hour and the maximum to 4 hours.

Series [2] can be described thus: Storage of solid forms under temperature/humidity or ambient conditions, XRPD re-analysis. Conditions: for change on storage: 24 hours under ambient conditions.
Series [3] is described as follows: Stability of Forms 1 and 2 (temperature/humidity storage, XRPD). On the procedure: Stability of Forms 1 and 2 of Bendamustine Hydrochloride
10 mg of bendamustine hydrochloride Form 1 (A), bendamustine hydrochloride Form 2 (B), and a 1:1 mixture of Forms 1 and 2 (C) were stored under the conditions listed in Table 7. Samples were analyzed by XRPD at 1 day, 2 week, and 6 week time points. […] The rate of this conversion appears to increase with temperature. The purity of Forms 1 and 2 after storage at 4° C./87% RH (5) and 60° C./75% RH (13) for 6 weeks was measured.

The nature of series [4]: Light Stability (Suntest Light Box). The following applies: for Purity (%): HPLC. The procedure:
Light Stability of Bendamustine Hydrochloride
Samples of Form 1 and Form 2 of Bendamustine Hydrochloride were stressed in a Suntest Light Box with a light intensity of 250 watts/m2 for 1 week with the black body temperature set to 25° C. A blank of each sample, wrapped in foil for protection, was also included in the experiment. After the experiment, samples were analyzed by XRPD and the purity was determined by HPLC.

Setting [5] is: 1 week at 40° C./75% RH, hydrochloride.
Where [6] appears, read: light stressed, 250 watts/m2, 1 week, hydrochloride.

As for `Cl.Cn1c(CCCC(=O)O)nc2cc(N(CCCl)CCCl)ccc21` [Amorphous bendamustine hydrochloride, bendamustine hydrochloride], in series [1], the “solid form by XRPD re-analysis after GVS humidity cycles” value was “converted to Form 2”. Also, in series [2] (setting [5]), the “change on storage (XRPD)” value is on record as “partial crystallization occurred”. Moreover, the change on storage result in series [2] (hydrochloride) was “became gummy”. For the same compound, in series [2] (inferred from 24 hours under ambient conditions), the hygroscopicity entry is recorded as “hygroscopic”.

As for `Cl.Cn1c(CCCC(=O)O)nc2cc(N(CCCl)CCCl)ccc21` [Form 4, bendamustine hydrochloride], in series [2] (hydrochloride), the change on storage entry is listed as “converted to Form 2”.

With `Cl.Cn1c(CCCC(=O)O)nc2cc(N(CCCl)CCCl)ccc21` [Form 2, bendamustine hydrochloride], in series [3] (4° C./87% RH (5) and 60° C./75% RH (13) for 6 weeks), the purity after storage result was “No large purity decreases”. Further, the “kinetic stability on storage” value in series [3] (6 weeks at 4° C./34 to 76% RH, 25° C./43 to 75% RH and 60° C./11 to 75% RH) is reported as “kinetically stable”. The “conversion of Form 2 to Form 1 on storage” value in series [3] (after 6 weeks) is “No conversion of Form 2 to Form 1”. In addition, the “uptake during GVS analysis” value in series [1] (between 10 and 15% RH, equating to 1 mole of water) was found to be 4%. Further, the “solid form by XRPD re-analysis after GVS humidity cycles” value in series [1] is recorded as “partial conversion occurred”. Besides, the “change on storage (XRPD)” value in series [2] (one month at 40° C./11% RH) is recorded as “became less crystalline”; in series [2] (one month at 40° C./75% RH) it was “no significant changes”. Moreover, the “change in crystallinity and purity during light stress test” value in series [4] (250 watts/m2, 1 week, 25° C., hydrochloride) is “significant decrease in both crystallinity and purity”. Further, the XRPD result in series [4] (blank wrapped in foil, 1 week in light box) is “No change”; in series [4] (setting [6]), “Less crystalline (sample brown in colour)”. Also, the “Purity (%)” value was found to be 95.6% in series [4] (blank wrapped in foil, 1 week in light box, listed as Form 2 blank, hydrochloride) and 68.7% in series [4] (setting [6]).

Consider `Cl.Cn1c(CCCC(=O)O)nc2cc(N(CCCl)CCCl)ccc21` [Form 3, bendamustine hydrochloride], for which the “change on storage (XRPD)” value in series [2] (1 month under ambient conditions) is “No significant changes”; in series [2] (setting [5]) it was “conversion to Form 2”.
